Drawing on patent publication US20040034082A1, “Utilization of pyrazoline derivatives in the preparation of a medicament for the prevention and/or treatment of proliferative cell diseases” (priority 2001, published 2004), this text covers melting point for 71 compounds.

SMILES strings stand for the structures.

`Cc1ccc(C2CC(C(N)=O)=NN2c2ccc(S(N)(=O)=O)cc2)cc1` (centres unmarked) [Example 41] returned a melting point of 210 to 215 °C. The figure for `Cc1cccc(C2CC(C(F)(F)F)=NN2c2ccc(S(N)(=O)=O)cc2)c1` (centres unmarked) [Example 15] is 125 to 128 °C; for `CS(=O)(=O)c1ccc(N2N=CCC2c2ccccc2)cc1` (centres unmarked) [Example 32] it is 197 to 202 °C. The figure for `CC1=NN(c2ccc(S(N)(=O)=O)cc2)C(c2ccc(C(F)(F)F)cc2)C1` (centres unmarked) [Example 30] is 190 to 194 °C; for `Cc1cc(Cl)ccc1N1N=C(C(F)(F)F)CC1c1ccc(S(C)(=O)=O)cc1` (centres unmarked) [Example 68] it is 104 to 108 °C; for `COc1ccc(C2CC(C(F)(F)F)=NN2c2ccc(S(N)(=O)=O)cc2)cc1` (centres unmarked) [Example 20] it is 125 to 128 °C.

`COc1ccc(C2CC(C(F)(F)F)=NN2c2ccc(S(N)(=O)=O)cc2)c(OC)c1` (centres unmarked) [Example 48] came in with a melting point of 121 to 126 °C. Consider `CS(=O)(=O)c1ccc(C2CC(C(F)(F)F)=NN2c2ccccc2)cc1` (centres unmarked) [Example 66], for which the melting point fell in the range of 114 to 115 °C. In the case of `CC1=NN(c2ccc(S(C)(=O)=O)cc2)C(c2ccc(C(F)(F)F)cc2)C1` (centres unmarked) [Example 33] it was 136 to 138 °C; in that of `NS(=O)(=O)c1ccc(N2N=C(C(F)(F)F)CC2c2ccc(OC(F)(F)F)cc2)cc1` (centres unmarked) [Example 22], 134 to 137 °C. Compound `CS(=O)(=O)c1ccc(C2CC(C(F)(F)F)=NN2c2ccccc2F)cc1` (centres unmarked) [Example 67] registered a melting point of 98 to 99 °C. `CC1=NN(c2ccccc2)C(c2ccc(S(C)(=O)=O)cc2)C1` (centres unmarked) [Example 77] registered a melting point of 132 to 135 °C. The figure for `COC(=O)C1=NN(c2ccc(S(N)(=O)=O)cc2)C(c2ccc(C)cc2)C1` (centres unmarked) [Example 37] is 192 to 197 °C; for `COc1ccc(C2CC(C(F)(F)F)=NN2c2ccc(S(N)(=O)=O)cc2)c(F)c1` (centres unmarked) [Example 47] it is 157 to 159 °C. On to `Cc1ccc(C2CC(C(F)F)=NN2c2ccc(S(N)(=O)=O)cc2)c(C)c1` (centres unmarked) [Example 50], for which the melting point was 181 to 183 °C. The figure for `COc1ccc(C2CC(C(F)(F)F)=NN2c2ccc(S(N)(=O)=O)cc2)c(C)c1` (centres unmarked) [Example 56] is 148 to 150 °C; for `NS(=O)(=O)c1ccc(N2N=C(C(F)F)CC2c2ccc(F)cc2F)cc1` (centres unmarked) [Example 57] it is 157 to 160 °C; for `Cc1cccc(N2N=C(C(F)(F)F)CC2c2ccc(S(C)(=O)=O)cc2)c1` (centres unmarked) [Example 70] it is 114 to 116 °C. In the case of `Cc1ccc(N2N=C(C(F)(F)F)CC2c2ccc(S(C)(=O)=O)cc2)cc1` (centres unmarked) [Example 4] it was 140 to 143 °C. `CS(=O)(=O)c1ccc(N2N=C(C(F)(F)F)CC2c2ccc(F)c(F)c2)cc1` (centres unmarked) [Example 25] registered a melting point of 132 to 135 °C. The figure for `COC(=O)C1=NN(c2ccc(S(N)(=O)=O)cc2)C(c2ccccc2)C1` (centres unmarked) [Example 38] is 84 to 90 °C; for `NS(=O)(=O)c1ccc(N2N=C(C(F)(F)F)CC2c2ccc(F)cc2Cl)cc1` (centres unmarked) [Example 52] it is 167 to 169 °C; for `CC1=NN(c2ccc(S(C)(=O)=O)cc2)C(c2ccc(F)cc2)C1` (centres unmarked) [Example 27] it is 120 to 123 °C. The figure for `Cc1ccc(C2CC(C(N)=O)=NN2c2ccc(S(C)(=O)=O)cc2)cc1` (centres unmarked) [Example 42] is 128 to 132 °C. In the case of `CC1=NN(c2ccc(S(N)(=O)=O)cc2)C(c2ccc(C)cc2)C1` (centres unmarked) [Example 28] it was 195 to 197 °C. `Cc1ccc(C2CC(C(F)(F)F)=NN2c2ccc(S(N)(=O)=O)cc2)c(F)c1` (centres unmarked) [Example 63] displayed a melting point of 166 to 167 °C. The figure for `NS(=O)(=O)c1ccc(N2N=C(C(F)(F)F)CC2c2ccc(Cl)cc2Cl)cc1` (centres unmarked) [Example 13] is 143 to 145 °C; for `NS(=O)(=O)c1ccc(N2N=C(C(F)(F)F)CC2c2cccc(F)c2)cc1` (centres unmarked) [Example 18] it is 132 to 133 °C; for `NS(=O)(=O)c1ccc(N2N=C(C(F)(F)F)CC2c2ccc(F)c(Cl)c2)cc1` (centres unmarked) [Example 21] it is 171 to 173 °C.

`NS(=O)(=O)c1ccc(N2N=C(C(F)(F)F)CC2c2ccc(C(F)(F)F)cc2F)cc1` (centres unmarked) [Example 53] came in with a melting point of 170 to 173 °C. In the case of `Cc1ccc(C2CC(C(=O)O)=NN2c2ccc(S(C)(=O)=O)cc2)cc1` (centres unmarked) [Example 36] it was 202 to 205 °C.

Consider `COC(=O)C1=NN(c2ccc(S(C)(=O)=O)cc2)C(c2ccc(C)cc2)C1` (centres unmarked) [Example 39], for which the melting point fell in the range of 155 to 160 °C. In the case of `NS(=O)(=O)c1ccc(C2CC(C(F)(F)F)=NN2c2ccc(F)cc2)cc1` (centres unmarked) [Example 76] it was 138 to 140 °C.

With `NS(=O)(=O)c1ccc(N2N=C(C(F)(F)F)CC2c2ccccc2F)cc1` (centres unmarked) [Example 16], the melting point was 166 to 168 °C. The compound `NS(=O)(=O)c1ccc(N2N=C(C(F)(F)F)CC2c2ccc(Cl)cc2F)cc1` (centres unmarked) [Example 61] had a melting point of 180 to 185 °C. With `NS(=O)(=O)c1ccc(N2N=C(C(F)(F)F)CC2c2ccccc2)cc1` (centres unmarked) [Example 5], the melting point was 156 to 157 °C.

Compound `CS(=O)(=O)c1ccc(C2CC(C(F)(F)F)=NN2c2ccc(Cl)cc2)cc1` (centres unmarked) [Example 65] gave a melting point of 117 to 121 °C.

`CS(=O)(=O)c1ccc(N2N=C(C(F)(F)F)CC2c2ccccc2F)cc1` (centres unmarked) [Example 17] displayed a melting point of 117 to 121 °C. For the compound `NS(=O)(=O)c1ccc(N2N=CCC2c2ccccc2)cc1` (centres unmarked) [Example 31], the melting point lay within 206 to 208 °C. `Cc1c(F)cccc1C1CC(C(F)(F)F)=NN1c1ccc(S(N)(=O)=O)cc1` (centres unmarked) [Example 55] registered a melting point of 193 to 195 °C. Turning to `Cc1ccc(N2N=C(C(F)(F)F)CC2c2ccc(S(C)(=O)=O)cc2)c(C)c1` (centres unmarked) [Example 71], the melting point lay in the range of 132 to 133 °C.

Compound `CC1(c2ccccc2)CC(C(F)(F)F)=NN1c1ccc(S(N)(=O)=O)cc1` (centres unmarked) [Example 2] had a melting point of 60 to 66 °C. The figure for `NS(=O)(=O)c1ccc(N2N=C(C(F)(F)F)CC2c2ccc(F)cc2)cc1` (centres unmarked) [Example 8] is 154 to 156 °C.

Turning to `Cc1ccc(C2CC(C(F)(F)F)=NN2c2ccc(S(N)(=O)=O)cc2)cc1` (centres unmarked) [Example 1], the melting point lay in the range of 140 to 143 °C.

`Cc1ccc(C2CC(C#N)=NN2c2ccc(S(C)(=O)=O)cc2)cc1` (centres unmarked) [Example 43] displayed a melting point of 162 to 164 °C. The compound `NS(=O)(=O)c1ccc(N2N=C(C(F)(F)F)CC2c2cccc(F)c2F)cc1` (centres unmarked) [Example 23] came in with a melting point of 152 to 154 °C. In the case of `CS(=O)(=O)c1ccc(C2CC=NN2c2ccc(F)cc2)cc1` (centres unmarked) [Example 78] it was 155 to 160 °C; in that of `COc1ccc(C2CC(C(F)(F)F)=NN2c2ccc(S(N)(=O)=O)cc2)cc1F` (centres unmarked) [Example 46], 108 to 114 °C; in that of `Cc1ccccc1C1CC(C(F)(F)F)=NN1c1ccc(S(N)(=O)=O)cc1` (centres unmarked) [Example 14], 124 to 126 °C. In the case of `Cc1ccc(C2CC(C(F)(F)F)=NN2c2ccc(S(N)(=O)=O)cc2)c(C)c1` (centres unmarked) [Example 24] it was 158 to 160 °C.

Compound `CC1=NN(c2ccc(S(C)(=O)=O)cc2)C(c2ccc(C)cc2)C1` (centres unmarked) [Example 29] registered a melting point of 113 to 117 °C.

The compound `NS(=O)(=O)c1ccc(N2N=C(C(F)(F)F)CC2c2ccc(F)cc2C(F)(F)F)cc1` (centres unmarked) [Example 58] came in with a melting point of 174 to 177 °C. For the compound `NC(=O)C1=NN(c2ccc(S(N)(=O)=O)cc2)C(c2ccccc2)C1` (centres unmarked) [Example 40], the melting point lay within 200 to 205 °C.

Take `NS(=O)(=O)c1ccc(N2N=C(C(F)(F)F)CC2c2ccc(C(F)(F)F)cc2C(F)(F)F)cc1` (centres unmarked) [Example 54]: the melting point was 212 to 214 °C. The figure for `Cc1ccc(C2CC(C(F)(F)F)=NN2c2ccc(S(N)(=O)=O)cc2)cc1C` (centres unmarked) [Example 44] is 152 to 155 °C; for `CS(=O)(=O)c1ccc(N2N=C(C(F)(F)F)CC2c2cccc(F)c2)cc1` (centres unmarked) [Example 19] it is 149 to 151 °C. In the case of `CS(=O)(=O)c1ccc(N2N=C(C(F)(F)F)CC2c2ccccc2)cc1` (centres unmarked) [Example 6] it was 137 to 140 °C.

In turn, `COc1cc(F)ccc1C1CC(C(F)(F)F)=NN1c1ccc(S(N)(=O)=O)cc1` (centres unmarked) [Example 49] gave a melting point of 179 to 182 °C. As for `NS(=O)(=O)c1ccc(N2N=C(C(=O)O)CC2c2ccccc2)cc1` (centres unmarked) [Example 35], the melting point lay in the range of 157 to 164 °C. The figure for `NS(=O)(=O)c1ccc(N2N=C(C(F)(F)F)CC2c2ccc(F)c(F)c2F)cc1` (centres unmarked) [Example 51] is 159 to 161 °C; for `Cc1cc(F)ccc1C1CC(C(F)(F)F)=NN1c1ccc(S(N)(=O)=O)cc1` (centres unmarked) [Example 62] it is 154 to 160 °C.

Compound `Cc1ccc(C2CC(C(=O)O)=NN2c2ccc(S(N)(=O)=O)cc2)cc1` (centres unmarked) [Example 34] gave a melting point of 172 to 176 °C. As to `CS(=O)(=O)c1ccc(C2CC(C(F)(F)F)=NN2c2cccc(F)c2)cc1` (centres unmarked) [Example 69], the melting point is 116 to 117 °C. As for `COc1ccc(C2CC(C(F)(F)F)=NN2c2ccc(S(N)(=O)=O)cc2)cc1C` (centres unmarked) [Example 45], the melting point lay within 170 to 175 °C.

For `NS(=O)(=O)c1ccc(N2N=C(C(F)(F)F)CC2c2ccc(F)c(F)c2)cc1` (centres unmarked) [Example 11], the melting point lay in the range of 153 to 155 °C.

For the compound `CC1=NN(c2ccc(S(N)(=O)=O)cc2)C(c2ccc(F)cc2)C1` (centres unmarked) [Example 26], the melting point fell in the range of 206 to 208 °C. `NS(=O)(=O)c1ccc(N2N=C(C(F)(F)F)CC2c2ccccc2Cl)cc1` (centres unmarked) [Example 60] showed a melting point of 157 to 159 °C. In the case of `CS(=O)(=O)c1ccc(C2CC(C(F)(F)F)=NN2c2ccc(Cl)cc2Cl)cc1` (centres unmarked) [Example 74] it was 103 to 106 °C; in that of `CS(=O)(=O)c1ccc(N2N=C(C(F)(F)F)CC2c2ccc(F)cc2)cc1` (centres unmarked) [Example 9], 121 to 122 °C; in that of `CS(=O)(=O)c1ccc(N2N=C(C(F)(F)F)CC2c2ccc(Cl)cc2Cl)cc1` (centres unmarked) [Example 12], 198 to 200 °C. Turning to `Cc1ccc(C2CC(C(F)(F)F)=NN2c2ccc(S(C)(=O)=O)cc2)cc1` (centres unmarked) [Example 7], the melting point fell in the range of 115 to 119 °C.

In general, melting point refers to the temperature, or range, at which the solid turns liquid.
